“And” between values parts separate entries of the source, which are not always exact repeats. Identical values can stand only once. Like-named read-outs stand apart in the source and are kept apart here.
Legend:
[1] = target: T1, α1 homomeric glycine receptors (Rattus norvegicus, UniProt P07727); assay: Whole-cell patch-clamp, Cl- current activated via α1 homomeric glycine receptors in transfected HEK 293 cells; format: cell-based
T1 construct: expressed in transfected cells; host or cells: HEK 293 (transient transfection by electroporation, cDNA in pCIS2 vector)
T1 sequence (P07727 29-457): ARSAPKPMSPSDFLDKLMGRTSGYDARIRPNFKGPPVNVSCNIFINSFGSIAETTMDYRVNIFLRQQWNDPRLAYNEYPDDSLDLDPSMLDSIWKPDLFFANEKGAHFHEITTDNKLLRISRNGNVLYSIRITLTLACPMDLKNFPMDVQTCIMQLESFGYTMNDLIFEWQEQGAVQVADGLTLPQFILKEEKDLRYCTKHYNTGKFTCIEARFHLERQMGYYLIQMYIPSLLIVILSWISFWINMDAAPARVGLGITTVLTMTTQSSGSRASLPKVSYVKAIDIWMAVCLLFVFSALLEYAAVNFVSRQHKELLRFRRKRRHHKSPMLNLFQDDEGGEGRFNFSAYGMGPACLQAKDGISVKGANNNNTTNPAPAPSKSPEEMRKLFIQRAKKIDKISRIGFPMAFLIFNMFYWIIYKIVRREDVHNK
Protocol: Cells were cultured in Dulbecco's modified Eagle's medium (DMEM, Biochrom, Berlin, Germany), supplemented with 10% fetal calf serum (FCS, Biochrom, Berlin, Germany), 100 U ml^−1 penicillin and 100 μg ml^−1 streptomycin at 37° C. in a 5% CO2/air incubator. […] For co-transfection of rat α1 glycine receptor subunits, the corresponding cDNA, each subcloned in the pCIS2 expression vector (Invitrogen, San Diego, USA), was added to the suspension. To visualize transfected cells, they were co-transfected with cDNA of green fluorescent protein (GFP 10 μg ml^−1). For transfection, we used an electroporation device by EquiBio (Kent, UK).
The compounds according to the present invention under investigation were prepared as 1 M stock solution in ethanol, light-protected and stored in glass vessels at −20° C. Concentrations were calculated from the amount injected into the glass vials. Drug-containing vials were vigorously vortexed for 60 min. Glycine and picrotoxin were dissolved directly in bath solution.
Patch electrodes contained [mM] KCl 140, MgCl2 2, EGTA 11, HEPES 10, glucose 10; the bath solution contained [mM]
A tight electrical seal of several GΩ formed between the cell membrane and a patch-clamp electrode allows inward currents due to agonist-induced channel activation to resolve in the pA range. Electrical resistance of the pipettes was around 5 MΩ, corresponding to a total access resistance in the whole-cell configuration of about 10 MΩ. The compounds according to the present invention under investigation were applied to the cells via a smooth liquid filament achieved with a single outflow (glass tubing 0.15 mm inner diameter) connected to a piezo crystal. The cells were placed at the interface between this filament and the continuously flowing background solution. When a voltage pulse was applied to the piezo, the tube was moved up and down onto or away from the cell under investigation. Correct positioning of the cell in respect to the liquid filament was ensured applying a saturating (1000 μM) glycine pulse before and after each test experiment. Care was taken to ensure that the amplitude and the shape of the glycine-activated current had stabilized before proceeding with the experiment. Test solution and glycine (1000 μM) were applied via the same glass-polytetrafluoroethylen perfusion system, but from separate reservoirs. The contents of these reservoirs were mixed at a junction immediately before entering the superfusion chamber.
The compounds under test were applied alone in order to determine their direct agonistic effects. A new cell was used for each compound and each protocol, at least three different experiments were performed for each setting. The amount of the diluent ethanol corresponding to the highest compound concentration used was 34 000 μM.
For data acquisition and further analysis the inventors used the Axopatch 200B amplifier in combination with pClamp6 software (Axon Instruments, Union City, Calif., USA). Currents were filtered at 2 kHz. Fitting procedures were performed using a non-linear least-squares Marquardt-Levenberg algorithm. Details are provided in the appropriate figure legends or in the results section.
Activated currents were normalized to their own maximum response. The dose-response-curves were fitted according to (Inorm=[1+(EC50/[C])^nH]^−1), where Inorm is the current induced directly by the respective concentration [C] of the compound, normalized to the maximum inward current.

in vivo = format: in vivo; conditions: rat; for Tmax: read-out: tmax (converted); for half-life: mean n=3, read-out: t1/2
Protocol: […] Whole blood samples were taken from a lateral tail vein for plasma separation at time points 0 min, 30 min, 1 h, 2 h and 4 h after p.o. dosing; and 0 min, 15 min, 30 min, 1 h, and 2 h after i.v. dosing, while the terminal samples at time point 6 h after dosing (p.o and Lv.) were taken by cardiac puncture. All time points were taken from a single rat, and all experiments were carried out in triplicate.
The samples were thawn at room temperature and prepared by protein precipitation with ratio 1:2 of plasma and acetonitrile and were centrifuged 10 minutes at 16 100×g (Eppendorf 5415D, Eppendorf AG, Hamburg, Germany) before injection to UPLCIMSMS system. The standard samples were prepared similarly, after spiking blank plasma samples to 0.5, 2, 5, 10, 20, 50, 200, 500, 1000 and 2000 ng/ml of the analyte compounds.
The pharmacokinetic parameters for study compounds were calculated by WinNonlin Pro (Pharsight Corp, CA) using standard noncompartmental methods. The volume of distribution (Vd) was based on the terminal phase. The elimination phase half-life (t1/2) was calculated by least-squares regression analysis of the terminal linear part of the log concentration-time curve. The area under the plasma concentration-time curve (AUC) was determined by use of the linear trapezoidal rule up to the last measurable concentration and thereafter by extrapolation of the terminal elimination phase to infinity. The area under the plasma concentration-time curve without terminal extrapolation is reported as AUC 0-6 h. The mean residence time (MRT) representing the average amount of time a compound remains in a compartment or system was calculated extrapolating the drug concentration profile to infinity. The maximum plasma concentration (cmax) and the time to cmax (tmax) were derived directly from the plasma concentration data. The tentative oral bioavailability (F) was calculated by dividing the AUC after p.o. administration by the AUC after i.v. administration taking into account the differences in dose, i.e. F=AUC(p.o.)/Dose(p.o.)/AUC(i.v)/[…], and reported as percentages (%).
A Waters Acquity chromatographic system (Waters Corp., Milford, Mass., USA) with autosampler, vacuum degasser and column oven was used. The analytical column used for all compounds was a Waters BEH ShieldRP18, (2.1×50 mm, 1.7 μm, Waters Corp, Milford, Mass., USA) together with an on-line filter. The eluents were 0.1% acetic acid (A, pH 3.2) and acetonitrile (B). A linear gradient elution from 5% B to 35% B in 0-2 minutes, from 35% B to 85% B in 2.0-3.0 min was employed, followed by 1 min isocratic elution with […] and column equilibration. The flow rate was 0.5 ml/min and the column oven temperature was 35° C. LC/MS/MS/data was acquired with a Micromass Quattro Premier triple quadrupole mass spectrometer equipped with a LockSpray electrospray ionization source. A negative ion mode ionisation was used. The multiple reaction monitoring (MRM) mode of detection was used. The mass spectrometer and UPLC system were operated under Micromass MassLynx 4.1 software. Complete LC/MS/MS parameters are presented in Appendix I.
Detection/quantitation limits between 2 ng/ml and 10 ng/ml in plasma were obtained for each compound. Calibration curves for quantification were generated by fitting the ratio of the external standard peak areas as a function of the concentration, excluding the point of origin and using 1/x weighting and linear or quadratic fitting. The ranges up to 2000 ng/ml were fitted for calibration curves. […] The overall precisions 12.0-17.0% were calculated from the standard samples (two injection/concentration), using Snedecor equation S=(Σd^2/2n)^0.5, in which S=precision, d is the difference between duplicates expressed as % of the mean value, and N is the number of standard concentration. The concentrations of each study compound in the samples are shown in the Appendices IV-VI.

[2] = EC50 (nM), α1 homomer, initial tests, Hill fit to normalised response, rat α1 receptors in HEK 293
[3] = initial tests, Hill fit to normalised response
[4] = plasma, iv, i.v. 1 mg/kg, mean n=3
[5] = 1 mg/kg i.v., individual animals, 1 mg/kg
[6] = 8 mg/kg p.o., individual animals, 8 mg/kg

Question: With `CC(C)c1cc(-c2ccc(-c3ccccc3)cc2)cc(C(C)C)c1O` [4-(p-biphenyl)-propofol] as the compound, how does the EC50 [1, 2] read?
Answer: Its EC50 is 0.8 ± 0.2 nM.

Question: What about the “nH (Hill coefficient), α1 homomer” value [1, 3] of the same compound?
Answer: Its value is 2.6 ± 1.2.

Question: What does the source list for `CC(C)c1cc(-c2ccc(C(C)(C)C)cc2)cc(C(C)C)c1O` [4-(p-tert-butylphenyl)-propofol]?
Answer: EC50 [1, 2]: 0.05 ± 0.03 nM; nH (Hill coefficient), α1 homomer [1, 3]: 2.0 ± 0.4

Question: Which results are given for `CC(C)c1cc(Cl)cc(C(C)C)c1O` [4-Cl-propofol, 4-Chloropropofol]?
Answer: clearance (in vivo; [4]): 8.88 L/h/kg; Tmax (in vivo; [4]): 15 min; bioavailability (in vivo; plasma, oral, 8 mg/kg p.o. vs 1 mg/kg i.v., read-out: F (%) tentative oral bioavailability): 72.4%; Tmax (in vivo; plasma, po, p.o. 8 mg/kg, mean n=3): 30 min; tmax (in vivo; 1 mg/kg i.v., individual animals): 15 min; AUC (in vivo; [5]): 10.7 µg·min/mL and 5.43 µg·min/mL and 6.01 µg·min/mL; CL/F (in vivo; [5]): 5.59 L/h/kg and 11 L/h/kg and 9.96 L/h/kg; MRT (in vivo; [5]): 31.8 min and 80.8 min and 33.6 min; cmax (in vivo; [5]): 170 ng/mL and 70 ng/mL and 90 ng/mL; t1/2 (in vivo; [5]): 16.3 min and 81.8 min and 48.2 min; tmax (in vivo; 8 mg/kg p.o., individual animals): 30 min; AUC (in vivo; [6]): 33.2 µg·min/mL and 34.9 µg·min/mL and 60.4 µg·min/mL; CL/F (in vivo; [6]): 13.7 L/h/kg and 7.98 L/h/kg; MRT (in vivo; [6]): 305 min and 760 min and 764 min; cmax (in vivo; [6]): 0.12 μg/mL (2×) and 0.05 μg/mL; t1/2 (in vivo; [6]): 205 min and 493 min and 496 min; ADC 0-6 h (in vivo; i.v. 1 mg/kg, mean n=3): 6.29 µg·min/mL; AUC (in vivo; i.v. 1 mg/kg, mean n=3): 7.39 µg·min/mL; CL/F (in vivo; i.v. 1 mg/kg, mean n=3): 8.88 L/h/kg; half life (in words) (in vivo; i.v. dosing): intermediate; clearance (in words) (in vivo; i.v. dosing, compared to rat liver blood flow): very high; concentration in plasma (in vivo; iv (1 mg/kg), 15 min, individual animals, listed as CK1-1, 1 mg/kg): 0.172 µg/mL and 0.07 µg/mL and 0.0943 µg/mL; concentration in plasma (in vivo; iv (1 mg/kg), 30 min, individual animals, listed as CK1-1, 1 mg/kg): 0.0261 µg/mL and 0.0254 µg/mL; concentration in plasma (in vivo; iv (1 mg/kg), 1 h, individual animals, listed as CK1-1, 1 mg/kg): 0.0152 µg/mL and 0.0165 µg/mL; concentration in plasma (in vivo; iv (1 mg/kg), 2 h, individual animals, listed as CK1-1, 1 mg/kg): 0.0337 µg/mL and 0.0115 µg/mL; detection in plasma after oral (p.o.) administration (in vivo; p.o.): observed in plasma; ADC 0-6 h (in vivo; p.o. 8 mg/kg, mean n=3): 18.7 µg·min/mL; AUC (in vivo; p.o. 8 mg/kg, mean n=3): 42.8 µg·min/mL; CL (in vivo; p.o. 8 mg/kg, mean n=3): 8.76 L/h/kg; Vd (in vivo; p.o. 8 mg/kg, mean n=3): 79.6 L/kg; MRT (in vivo; plasma, iv, 1 mg/kg, i.v. 1 mg/kg, mean n=3, read-out: MRT (converted)): 48.7 min; Vd (in vivo; plasma, iv, 1 mg/kg, i.v. 1 mg/kg, mean n=3, read-out: Vd): 11.8 L/kg; cmax (in vivo; plasma, iv, 1 mg/kg, i.v. 1 mg/kg, mean n=3, read-out: cmax): 110 ng/mL; half-life (in vivo; plasma, iv, 1 mg/kg, i.v. 1 mg/kg): 48.8 min; concentration at 30 min (in vivo; plasma, iv, 1 mg/kg, iv (1 mg/kg), 30 min, individual animals): 0.0473 µg/mL; concentration at 1 h (in vivo; plasma, iv, 1 mg/kg, iv (1 mg/kg), 1 h, individual animals): 0.0132 µg/mL; CL/F (in vivo; plasma, po, 8 mg/kg, 8 mg/kg p.o., individual animals, read-out: CL/F): 14.5 L/h/kg; Vd/F (in vivo; plasma, po, 8 mg/kg, p.o. 8 mg/kg, mean n=3): 110 L/kg; CL/F (in vivo; plasma, po, 8 mg/kg, p.o. 8 mg/kg, mean n=3, read-out: CL/F): 12.1 L/h/kg; MRT (in vivo; plasma, po, 8 mg/kg, p.o. 8 mg/kg, mean n=3, read-out: MRT (converted)): 609 min; cmax (in vivo; plasma, po, 8 mg/kg, p.o. 8 mg/kg, mean n=3, read-out: cmax): 100 ng/mL; half-life (in vivo; plasma, po, 8 mg/kg, p.o. 8 mg/kg): 398 min; concentration at 4 h (in vivo; plasma, po, 8 mg/kg, po (8 mg/kg), 4 h, individual animals): 0.0618 µg/mL; concentration at 6 h (in vivo; plasma, po, 8 mg/kg, po (8 mg/kg), 6 h, individual animals): 0.0338 µg/mL; concentration in plasma (in vivo; po (8 mg/kg), 30 min, individual animals, listed as CK1-1, 8 mg/kg): 0.121 µg/mL and 0.116 µg/mL and 0.051 µg/mL; concentration in plasma (in vivo; po (8 mg/kg), 1 h, individual animals, listed as CK1-1, 8 mg/kg): 0.0998 µg/mL and 0.0473 µg/mL and 0.0572 µg/mL; concentration in plasma (in vivo; po (8 mg/kg), 2 h, individual animals, listed as CK1-1, 8 mg/kg): 0.0643 µg/mL and 0.0253 µg/mL and 0.0523 µg/mL; concentration in plasma (in vivo; po (8 mg/kg), 4 h, individual animals, listed as CK1-1, 8 mg/kg): 0.0361 µg/mL and 0.0551 µg/mL; concentration in plasma (in vivo; po (8 mg/kg), 6 h, individual animals, listed as CK1-1, 8 mg/kg): 0.032 µg/mL and 0.0553 µg/mL

Question: What does the source list for `CC(C)c1cc(NC(=O)C(F)(F)F)cc(C(C)C)c1O` [4-trifluoroacetamide-propofol, 4-Trifluoroacetamide-propofol]?
Answer: EC50 [1, 2]: 0.3 nM; EC50 ([1]; EC50, further series of tests (later tests)): 0.11 nM

Source: patent publication US8507724B2 (priority 2008, dated 2013)
